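Grown in 96-well plates, cells were treated for 48 hours with each compound at five concentrations. Insufficient inhibition: endpoint recorded as highest concentration tested. At the GI50, growth is halved.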 The source made the active and inactive calls. Rule as the data show it: active = GI50 up to about 1.1 µM and inactive = higher.

Test systems include NCI-H460; HL-60; HT-29; TK-10; MDA-MB-231; Hs-578T; UACC-257; MDA-MB-435; OVCAR-8; RXF 393; 786-0; HCT-116; OVCAR-5; T47D; A549; RPMI-8226; CAKI-1; SN12C; PC-3; NCI/ADR-RES.
Common to all, as to experiment: NCI-60 cell line screen, 48 h

`CCOC(=O)c1cc2c(OC(C)=O)ccc(OC(C)=O)c2s1`: the GI50 in the assay with NCI-H460 is 5.65 µM (inactive); with HL-60 it was 0.845 µM (active); in the assay on HT-29 it was 3.02 µM (inactive); in the assay with TK-10 it was 6.82 µM (inactive); in the assay with MDA-MB-231, 2.02 µM (inactive); with Hs-578T, 1.69 µM (inactive). Besides, the GI50 is 1.95 µM (inactive) in the assay on UACC-257; 2.67 µM (inactive) with MDA-MB-435; 1.66 µM (inactive) in the assay with OVCAR-8; 1.56 µM (inactive) in the assay on RXF 393; 2.49 µM (inactive) with 786-0; 2.81 µM (inactive) with HCT-116. The GI50 with OVCAR-5 was 6.19 µM (inactive); in the assay with T47D, 1.48 µM (inactive); in the assay on A549, 10.7 µM (inactive); in the assay on RPMI-8226 it was 2.31 µM (inactive); with CAKI-1, 4.35 µM (inactive); in the assay with SN12C, 2.25 µM (inactive). The GI50 is 1.96 µM (inactive) with PC-3 and 2.2 µM (inactive) in the assay on NCI/ADR-RES.
In the case of `CN1N=C(c2ccncc2)OC1c1ccc(Cl)c(Cl)c1` (stereo not given), the GI50 in the assay with NCI-H460 is > 100 µM (inactive); with HL-60, 69.8 µM (inactive); with HT-29, 60.8 µM (inactive); in the assay with TK-10 it was > 100 µM (inactive); in the assay on MDA-MB-231 it was > 100 µM (inactive); with Hs-578T, > 100 µM (inactive). Also, the GI50 with UACC-257 was > 100 µM (inactive); in the assay on MDA-MB-435 it was > 100 µM (inactive); in the assay with OVCAR-8 it was > 100 µM (inactive); in the assay with RXF 393, 74.1 µM (inactive); in the assay with 786-0 it was 83.6 µM (inactive); in the assay with HCT-116, > 100 µM (inactive). Moreover, the GI50 in the assay with OVCAR-5, with T47D, in the assay on A549, with RPMI-8226, with CAKI-1 and in the assay with SN12C was > 100 µM (inactive) in each case. The GI50 in the assay on PC-3 and with NCI/ADR-RES was > 100 µM (inactive) each time.
For `Cc1cc(C)c(P2C(=C(O[Si](C(C)C)(C(C)C)C(C)C)C(C)(C)C)C2(c2ccccc2)c2ccccc2)c(C)c1` (stereo not given), the GI50 in the assay on NCI-H460, in the assay with HL-60, in the assay with HT-29, in the assay on TK-10, with MDA-MB-231 and with Hs-578T was > 100 µM (inactive) throughout. The GI50 was > 100 µM (inactive) in the assay on UACC-257; > 100 µM (inactive) in the assay with MDA-MB-435; > 100 µM (inactive) in the assay with OVCAR-8; > 100 µM (inactive) in the assay with RXF 393; > 100 µM (inactive) in the assay with 786-0; 52.8 µM (inactive) with HCT-116. The GI50 in the assay with OVCAR-5 is > 100 µM (inactive); in the assay with T47D, > 100 µM (inactive); with A549, 61.8 µM (inactive); with RPMI-8226, 62.8 µM (inactive); in the assay with CAKI-1 it was > 100 µM (inactive); in the assay on SN12C, > 100 µM (inactive). Moreover, the GI50 with PC-3 is 57.9 µM (inactive); with NCI/ADR-RES, > 100 µM (inactive).
Consider `CCc1nc(N)nc(N)c1-c1ccc(Cc2ccccc2)c([N+](=O)[O-])c1`, for which the GI50 in the assay on NCI-H460 is < 0.01 µM (active); in the assay with HL-60, < 0.01 µM (active); with HT-29 it was < 0.01 µM (active); in the assay on TK-10, 29.5 µM (inactive); in the assay with MDA-MB-231, 38.3 µM (inactive); with Hs-578T, 12.3 µM (inactive). Moreover, the GI50 was 23.6 µM (inactive) with UACC-257; < 0.01 µM (active) in the assay on MDA-MB-435; < 0.0153 µM (active) with OVCAR-8; 24.5 µM (inactive) with RXF 393; < 0.01 µM (active) in the assay on 786-0; < 0.01 µM (active) in the assay with HCT-116. For the same molecule, the GI50 with OVCAR-5 is > 55 µM (inactive); in the assay on T47D, 6.95 µM (inactive); in the assay with A549, < 0.01 µM (active); in the assay on RPMI-8226 it was 0.0622 µM (active); with CAKI-1, 0.0183 µM (active); with SN12C, 0.247 µM (active). The GI50 was < 0.0353 µM (active) in the assay with PC-3 and 0.0475 µM (active) in the assay on NCI/ADR-RES.
Consider `CN(C)c1ccc(C(Cc2ccccc2)C2NC(=S)NC2=O)cc1` (stereo not given), for which the GI50 in the assay on NCI-H460 was 99.8 µM (inactive); in the assay with HL-60, 29.1 µM (inactive); in the assay with HT-29 it was > 83.6 µM (inactive); in the assay with TK-10, > 100 µM (inactive); in the assay with MDA-MB-231, > 100 µM (inactive); with Hs-578T, 91.8 µM (inactive). The GI50 with UACC-257 was > 100 µM (inactive); in the assay on MDA-MB-435, > 75.7 µM (inactive); in the assay on OVCAR-8, > 100 µM (inactive); in the assay with RXF 393, > 100 µM (inactive); in the assay on 786-0, > 100 µM (inactive); with HCT-116 it was > 100 µM (inactive). For the same molecule, the GI50 in the assay on OVCAR-5 was > 100 µM (inactive); in the assay with T47D, > 100 µM (inactive); with A549 it was > 100 µM (inactive); in the assay on RPMI-8226, 97.7 µM (inactive); in the assay with CAKI-1, > 100 µM (inactive); in the assay on SN12C, > 100 µM (inactive). The GI50 with PC-3 and with NCI/ADR-RES was > 100 µM (inactive) throughout.
For the molecule `CC(=O)NC(CS/N=N/c1[nH]cnc1C(N)=O)C(=O)O` (stereo not given), the GI50 in the assay with NCI-H460 is 5.57 µM (inactive); in the assay on HL-60, 1.16 µM (inactive); in the assay on HT-29 it was > 46.9 µM (inactive); with TK-10, 1.75 µM (inactive); in the assay on MDA-MB-231 it was 2.2 µM (inactive); in the assay with Hs-578T, 16.2 µM (inactive). Moreover, the GI50 in the assay on UACC-257 was 39.3 µM (inactive); in the assay with MDA-MB-435, 10.4 µM (inactive); in the assay with OVCAR-8, 2.06 µM (inactive); in the assay on RXF 393 it was > 100 µM (inactive); in the assay with 786-0, 13 µM (inactive); in the assay on HCT-116, 5.5 µM (inactive). Also, the GI50 was > 76.2 µM (inactive) in the assay with OVCAR-5; > 24.1 µM (inactive) in the assay on T47D; > 100 µM (inactive) in the assay on A549; 1.46 µM (inactive) in the assay with RPMI-8226; 2.55 µM (inactive) in the assay with CAKI-1; 3.21 µM (inactive) in the assay on SN12C. Further, the figures for the GI50 in the assay on PC-3 and in the assay with NCI/ADR-RES were 6.38 µM (inactive) and 3.04 µM (inactive), respectively.
`COc1cc(S(=O)(=O)Nc2nc(-c3ccc(N4C(=O)C(CC(=O)O)SC4c4ccccc4O)cc3)cs2)ccc1Cl` (stereo not given): the GI50 was 82.4 µM (inactive) with NCI-H460; 15.3 µM (inactive) in the assay on HL-60; 90.8 µM (inactive) in the assay on HT-29; > 100 µM (inactive) in the assay on TK-10; > 100 µM (inactive) in the assay with MDA-MB-231; > 100 µM (inactive) in the assay with Hs-578T. Besides, the GI50 was 88.7 µM (inactive) with UACC-257; 87.5 µM (inactive) in the assay with MDA-MB-435; 62.8 µM (inactive) in the assay with OVCAR-8; 61.2 µM (inactive) in the assay on RXF 393; > 100 µM (inactive) in the assay on 786-0; 46.3 µM (inactive) with HCT-116. For the same molecule, the GI50 in the assay on OVCAR-5 was > 100 µM (inactive); in the assay with T47D it was 28.1 µM (inactive); in the assay with A549 it was 32 µM (inactive); in the assay on CAKI-1, > 100 µM (inactive); in the assay on SN12C, > 100 µM (inactive); in the assay with PC-3, 59.4 µM (inactive). In addition, the GI50 in the assay with NCI/ADR-RES is > 100 µM (inactive).
Consider `CNc1ccc(C(=O)CC(O)CCC(C)C2OC(=O)CC(O)CC(=O)CC(O)CC(O)CC(O)CC(O)CC3(O)CC(O)C(C(=O)NCCN(C)C)C(CC(OC4OC(C)C(O)C(NC(=O)CN5CCN(C)CC5)C4O)\C=C/C=C\C=C/C=C/C=C/C=C\C=C/C2C)O3)cc1` (stereo not given), for which the GI50 in the assay on NCI-H460 is 4.73 µM (inactive); in the assay on HL-60 it was 7.29 µM (inactive); with HT-29, 3.85 µM (inactive); in the assay with TK-10, 22.5 µM (inactive); in the assay with MDA-MB-231, 81.7 µM (inactive); in the assay with Hs-578T, 1.91 µM (inactive). Moreover, the GI50 is 10.7 µM (inactive) in the assay with UACC-257; 14.9 µM (inactive) in the assay with MDA-MB-435; 13.9 µM (inactive) with OVCAR-8; > 100 µM (inactive) with RXF 393; 12.9 µM (inactive) in the assay with 786-0; 57.4 µM (inactive) in the assay on OVCAR-5. Moreover, the GI50 in the assay on T47D was 51.4 µM (inactive); with A549 it was 2.88 µM (inactive); in the assay with CAKI-1, > 100 µM (inactive); in the assay with SN12C, 3.21 µM (inactive); with PC-3 it was > 100 µM (inactive); with NCI/ADR-RES it was 6.9 µM (inactive).
Take `O=c1c2cc([N+](=O)[O-])ccc2n2n1Cc1ccccc1C2`: the GI50 is 40.6 µM (inactive) in the assay on NCI-H460; > 100 µM (inactive) with HL-60; > 100 µM (inactive) in the assay on HT-29; > 100 µM (inactive) in the assay on TK-10; > 100 µM (inactive) in the assay on MDA-MB-231; 43.4 µM (inactive) in the assay with Hs-578T. Besides, the GI50 in the assay with UACC-257, with MDA-MB-435, with OVCAR-8, in the assay on RXF 393, with 786-0 and in the assay with HCT-116 was > 100 µM (inactive) throughout. Besides, the GI50 in the assay on T47D is 65.5 µM (inactive); with A549, 79.3 µM (inactive); in the assay with RPMI-8226, > 100 µM (inactive); in the assay on CAKI-1, 75 µM (inactive); in the assay on SN12C it was > 100 µM (inactive); in the assay on PC-3, 32.4 µM (inactive). Besides, the GI50 in the assay with NCI/ADR-RES is 73.6 µM (inactive).
Take `COC(=O)Nc1nc2cc(Oc3ccc4nc(NC(=O)OC)[nH]c4c3)ccc2[nH]1`: the GI50 with NCI-H460 was 1.36 µM (inactive); in the assay with HL-60, 0.608 µM (active); with HT-29 it was 1.14 µM (inactive); with TK-10 it was 4.78 µM (inactive); in the assay on MDA-MB-231, 1.68 µM (inactive); in the assay with Hs-578T, 0.975 µM (active). Also, the GI50 in the assay on MDA-MB-435 was 0.115 µM (active); in the assay on OVCAR-8, 1.41 µM (inactive); in the assay with RXF 393, 0.74 µM (active); in the assay with 786-0, 0.435 µM (active); in the assay with HCT-116, 0.438 µM (active); in the assay with OVCAR-5 it was 9.02 µM (inactive). Moreover, the GI50 is 2.59 µM (inactive) with T47D; 2.25 µM (inactive) in the assay with A549; 0.929 µM (active) with RPMI-8226; 2.32 µM (inactive) with CAKI-1; 1.78 µM (inactive) in the assay on SN12C; 0.419 µM (active) with PC-3. In the assay on NCI/ADR-RES, the GI50 is 4.33 µM (inactive).
